Measurements published in US20200138921A1, “METHODS OF PREVENTING AND TREATING DISEASES CHARACTERIZED BY SYNAPTIC DYSFUNCTION AND NEURODEGENERATION INCLUDING ALZHEIMER'S DISEASE” (The Trustees of Columbia University in the City of New York, priority 2017, published 2020).

What was measured:
[1] = tested on: PSD95; test: Western blot of PSD95 in hippocampal neurons; type: cell-based, rat; conditions: neurons pretreated with 300 nM TOP, oAβ for 24 hours
Procedure: (§1) Whole frozen mouse hippocampi, human brain specimens, and cultured cells were homogenized in RIPA buffer (ThermoFisher) supplemented with protease and phosphatase inhibitor cocktail (ThermoFisher), using a Teflon dounce homogenizer and centrifuged at 14,000 rpm for 10 minutes at 4° C. Supernatants were collected, normalized by BCA assay (ThermoFisher), and prepared for loading using sample buffer (SB) 4× (ThermoFisher) and dithiothreitol (DTT) 10× (ThermoFisher).
(§2) To further test whether increasing Ube3A could rescue the effects of oAβ, cultured primary hippocampal neurons (14 DIV) were pretreated with 300 nM of TOP or control PBS. The neurons were then treated with oAβ for 24 hours, and whole cell lysates prepared for Western blot analysis, or fixed for microscopy.
(§3) Cells were also assessed for localization of PSD95 and NMDAR1, markers of postsynaptic terminals. Cells treated with TOP had increased levels of PSD95 and NMDAR1 (FIGS. 11B and 11C).

[2] = tested on: NMDAR1; test: Western blot of NMDAR1 in hippocampal neurons; type: cell-based, rat; conditions: neurons pretreated with 300 nM TOP, oAβ for 24 hours
Procedure: as §1, §2, §3

[3] = tested on: wild-type mice; test: Morris water maze in wild-type mice; type: in vivo; conditions: single TOP injection 275 μg, vs PBS-injected mice
Procedure: Mice were trained to find a hidden platform in a circular pool of 1.10 m diameter located in a room with extra maze cues. The location of the platform ([…] diameter) was constant for each mouse during training and was placed 1 cm beneath the surface of the water, maintained at 24° C.±2° C. throughout the duration of the test. At the end of test, the mice were dried off and placed in a clean cage with extra paper towels to prevent hypothermia Animals were then monitored inside their cage until eating, drinking, and ambulating normally Mice were trained in sessions consisting of four trials a day for five consecutive days. Mice started from different quadrants on a random basis during each trial and all four quadrants were used on any given day. The maximum swimming time allowed on each trial was 60 seconds.
Probe trials (1 session: 1 trials/session) were conducted 24 hours after the last training trial. During the probe test the platform was removed and mice were free to swim in the pool for 60 seconds. Time spent in each quadrant was measured. Trial and probe test sessions were recorded and analyzed with a video tracking system (Noldus). After the probe, mice were tested in the visible test for two consecutive days, 2 sessions/day with 3 trials/session to assess whether the mice were able to locate a visible platform (its location varied between the three trials of the same session). […]

[4] = tested on: J20 mice; test: Dendritic spine density in hippocampus of J20 mice; type: in vivo; conditions: single TOP injection 275 μg
Procedure: The protocol for diolistic labeling of neurons was adapted from Gan et al. 2000 and Gan et al. 2009. Briefly, 100 mg of tungsten particles (1.1 μm diameter; Bio-Rad) were thoroughly precipitated with 5.0 mg of lipophilic dye (DiI; ThermoFisher) and dissolved in 100 μl of methylene chloride. Dye-coated particles were shot 2-3 times into the cells using the Helios gene gun system (Bio-Rad) and left in 0.1 M PBS overnight to allow dye diffusion along neuronal processes. Cells were post-fixed with 4% paraformaldehyde (Pierce) for 1 hour to preserve staining, then mounted onto glass slides using Gel Mount (Biomeda) and stored at 4° C. in the dark.
Labeled neurons were imaged using the Laser Scanning Microscope (LSM) 510 Meta confocal microscope (Zeiss), equipped with 40×1.3 NA and 100×1.4 NA oil-immersion objectives. The NIH Image software program ImageJ was used the quantify diolistic-labeled cultured neurons. An average of 12 compressed images (20 μm thick) consisting of pyramidal neurons were quantified for each treatment. Spines were counted with NeuronStudio software in a blinded manner and spine density was represented in number of spine per μm dendritic length. Statistical analysis was performed using the statistics package GraphPad Prism.
Controls were wild-type mice and J20 mice injected with PBS.

[5] = usual marketed dosages, daily for five days or weekly; cited from earlier work
[6] = tested on: c-Abl; test: Western blot of phosphorylated c-Abl; type: cell-based, rat; conditions: oAβ treated vs vehicle (FIG. 4)
Description: FIG. 4A is a quantification of Western blots of phosphorylated c-Abl in vehicle treated (control) and DPH treated hippocampal neurons. FIG. 4B is a quantification of Western blots of phosphorylated Ube3A in vehicle treated (control) and DPH treated hippocampal neurons. […] FIG. 4D is a quantification from Western blots of phosphorylated Ube3A in vehicle treated (control), oAβ treated, and oAβ with STI treated hippocampal neurons. Graphs represent mean values and standard deviation. Significance determined by unpaired student's t-test in FIGS. 4A and 4B, and one-way ANOVA followed by Tukey Post Hoc multiple comparisons in FIGS. 4C and 4D.
It was hypothesized that oAβ could affect the ligase function of Ube3A. One important regulatory mechanism of Ube3A is through c-Abl-mediated phosphorylation tyrosine residue 636 (Y636), which impairs its E3 ligase activity (Chan et al. 2013). […] Since phospho-Ube3A antibodies are not available it was decided to test the hypothesis in B35 neuroblastoma cell line overexpressing HA-tagged Ube3A for immunoprecipitation.

[7] = tested on: Ube3A; test: Ube3A levels in astrocyte-enriched cultures; type: cell-based, rat; conditions: astrocyte-enriched cultures treated with oAβ (results not shown)
Procedure: Since Ube3A is also expressed in astrocytes (Grier et al. 2015), it was determined whether Ube3A levels were also altered in these cells.

[8] = tested on: Ube3A mRNA; test: qPCR of Ube3A mRNA in hippocampal neurons; type: cell-based, rat; conditions: oAβ for 24 hours (results not shown)
Procedure: Neurons were lysed and total RNA was extracted using TRIzol reagent (Ambion) following the manufacturer's protocol. RNA concentration and purity were assessed by measuring the optical density at 260 and 280 nm with a NanoDrop (Thermo Scientific). cDNA was synthesized using the first-strand cDNA synthesis kit (Origene) with 1 μg of total RNA, following the manufacturer's instructions. Quantitative real-time PCR was performed using FastStart SYBR Green Master Mix (Roche) and an Eppendorf Realplex Mastercyler with the following cycle settings: 1 cycle at 95° C. for 10 min and 40 cycles of amplification, 95° C. for 15 s, 58-60° C. for 30-60 s, 72° C. for 30-60 s. The amounts of Ube3A mRNA were quantified and normalized to GAPDH mRNA using the following primer pairs: Ube3A forward 5′-[…]-3′ (SEQ ID NO: 3) and reverse 5′-[…]—3′ (SEQ ID NO: 4). The threshold cycles were determined and normalized to the threshold cycles of a GAPDH gene. Relative mRNAs levels for Ube3A were expressed as a fold induction in an experimental condition compared with a control condition.
In mammals, the Ube3A gene is subject to genomic imprinting, whereby only the maternal allele is expressed in neurons. The paternal allele is silenced through the expression of a Ube3A-antisense (Ube3A-ATS), transcribed as part of a large non-coding antisense transcript (Runte et al. 2001).

With `CC[C@@]1(O)C(=O)OCc2c1cc1n(c2=O)Cc2cc3c(CN(C)C)c(O)ccc3nc2-1` [TOP, topotecan] the “levels of PSD95” value [1] was “increased”, the “levels of NMDAR1” value [2] was “increased” and the “memory (Morris Water Maze)” value [3] was “significant enhancement”. For the same compound, the dendritic spine density [4] was “significant increase”, the hematologic toxicity [5] was “reversible manageable” and the nonhematologic toxicity [5] was “mild”.

In the case of “oAβ: synthetic soluble oligomeric Aβ1-42”, the c-Abl phosphorylation [6] is reported as “induces”, the Ube3A levels [7] is reported as “modest, but significant increase” and the “levels of Ube3A mRNA” value [8] is reported as “did not show any differences”.
